This note sets out measurements from patent US9107411B2, “Indolecarboxamides and benzimidazolecarboxamides as insecticides and acaricides” (BAYER INTELLECTUAL PROPERTY GMBH, priority 2011, dated 2015).

For one data set, the system named is Boophilus microplus. The data set is described as follows: Boophilus microplus test (BOOPMI injection). In kind it is in vivo. The conditions noted are these: application rate 20 μg/animal; injected into the abdomen; after 7 days. In a few lines:
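Active ingredient dissolved in DMSO (10 mg in 0.5 ml, then diluted to the test concentration) and injected into the abdomen of Boophilus microplus ticks. Ticks kept in dishes in a climate-controlled room for 7 days. Efficacy (%) is based on laying of fertile eggs; 100% means no tick laid fertile eggs.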

The next data set concerns Phaedon cochleariae. The data set is described as follows: Phaedon test (PHAECO spray treatment). In kind it is in vivo. The conditions noted are these: Chinese cabbage leaf discs, after 7 days. The method in brief:
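Chinese cabbage leaf discs were sprayed with compound in acetone/DMF with emulsifier, diluted in water to the test concentration. After drying, discs were infested with mustard beetle larvae. Efficacy in % was scored after 7 days, where 100% means all larvae were killed and 0% means none.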

The test system of a further data set is Spodoptera frugiperda. The data set is described as follows: Spodoptera frugiperda test (SPODFR spray treatment). In kind it is in vivo. The conditions noted are these: maize leaf discs, after 7 days. In a few lines:
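Maize leaf discs sprayed with active ingredient formulated in acetone/dimethylformamide with emulsifier, diluted in emulsifier-containing water to the desired concentration. After drying, discs were populated with armyworm caterpillars. Efficacy (%) scored after 7 days: 100% all caterpillars killed, 0% none killed.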

Another data set concerns Tetranychus urticae. The experiment in a line: Tetranychus test, OP-resistant (TETRUR spray treatment). The conditions noted are these: bean leaf discs, after 6 days. The data set is classed as in vivo. The method in brief:
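Bean leaf discs infested with all stages of OP-resistant T. urticae sprayed with compound formulated in acetone/DMF plus alkylaryl polyglycol ether emulsifier, diluted in water. Efficacy (% mites killed) scored after 6 days.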

A further data set deals with adult Musca domestica. The experiment in a line: Musca domestica test (MUSCDO). In kind it is in vivo. The conditions noted are these: application rate 100 ppm; treated sponge; after 2 days. The method in brief: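 Compound dissolved in DMSO and diluted with water to the desired concentration was applied to a sponge, and vessels were populated with adult flies. Kill % was scored after 2 days, where 100% means all flies dead.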

The next data set concerns Lucilia cuprina larvae. The data set is described as follows: Lucilia cuprina test (LUCICU). The data set is classed as in vivo. To be noted: application rate 100 ppm; treated horse meat; after 2 days. In a few lines:
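About 20 Lucilia cuprina larvae placed on horse meat treated with compound formulation (DMSO concentrate diluted in water). Kill (%) scored after 2 days, 100% meaning all larvae dead.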

A further data set is described as follows: logP (HPLC-MS). The data set is classed as physicochemical. To be noted: HPLC, reversed-phase column (C18), acidic range pH 2.7, acetonitrile (0.1% formic acid)/water gradient, 43° C., calibration with unbranched alkan-2-ones.
A further data set relates to Ctenocephalides felis. The experiment in a line: Ctenocephalides felis oral (CTECFE). To be noted: application rate 100 ppm in citrated cattle blood; after 2 days. In kind it is in vivo. In a few lines: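 About 20 unfed adult fleas fed through a Parafilm membrane on citrated cattle blood containing the compound at the desired concentration, diluted from a DMSO concentrate. Kill in % was scored after 2 days, where 100% means all fleas dead and 0% none.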

For the next data set, the system named is Amblyomma hebraeum. The experiment in a line: Amblyomma hebaraeum test (AMBYHE). The data set is classed as in vivo. The conditions noted are these: application rate 100 ppm; tick nymphs immersed one minute; after 42 days. The protocol: Amblyomma hebaraeum Test (AMBYHE) Solvent: dimethyl sulphoxide To prepare an appropriate active ingredient formulation, 10 mg of active ingredient are mixed with 0.5 ml of dimethyl sulphoxide and the concentrate is diluted with water to the desired concentration. Tick nymphs (Amblyomma hebraeum) are placed into perforated plastic beakers and immersed in the desired concentration for one minute. The ticks are transferred on filter paper into a Petri dish and stored in a climate-controlled cabinet. After 42 days, the kill in % is determined 100% means that all of the ticks have been killed; 0% means that none of the ticks have been killed.

Another data set relates to Myzus persicae. The experiment in a line: Myzus test (MYZUPE spray treatment). To be noted: application rate 100 g/ha; Chinese cabbage leaf discs; after 6 days. The data set is classed as in vivo. The procedure:
Myzus Test (MYZUPE Spray Treatment) Solvent: 78 parts by weight of acetone • • 1.5 parts by weight of dimethylformamide Emulsifier: 0.5 part by weight of alkylaryl polyglycol ether To produce an appropriate active ingredient formulation, 1 part by weight of active ingredient is mixed with the stated amounts of solvent and emulsifier, and the concentrate is diluted with emulsifier-containing water to the desired concentration. Leaf discs of Chinese cabbage (Brassica pekinensis) infested by all stages of the green peach aphid (Myzus persicae) are sprayed with an active ingredient formulation of the desired concentration. After 6 days, the efficacy in % is determined. 100% means that all of the aphids have been killed; 0% means that none of the aphids have been killed.

In data set [1] the test system is adult engorged Boophilus microplus females of the SP-resistant Parkhurst strain. The experiment in a line: Boophilus microplus test (DIP). In kind it is in vivo. The conditions noted are these: application rate 100 ppm, after 7 days. The protocol: Boophilus microplus Test (DIP)
Test animals: adult engorged Boophilus microplus females of the SP-resistant Parkhurst strain
Solvent: dimethyl sulphoxide
10 mg of active ingredient are dissolved in 0.5 ml of dimethyl sulphoxide. For the purpose of preparing a suitable formulation, the active ingredient solution is diluted with water to the concentration desired in each case.
This active ingredient formulation is pipetted into tubes. 8-10 ticks are transferred into a further tube with holes. The tube is immersed into the active ingredient formulation, and all ticks are completely wetted. After the liquid has run out, the ticks are transferred onto filter discs in plastic dishes and stored in a climate-controlled room.
The activity is assessed after 7 days by laying of fertile eggs. Eggs whose fertility is not outwardly visible are stored in glass tubes in a climate-controlled cabinet until the larvae hatch. An efficacy of 100% means that none of the ticks has laid any fertile eggs.

Turning to `C#CCn1c(C(=O)NC(c2ccc(F)c(Br)c2)C(F)(F)F)cc2cc(C(=O)NC3CC3)c(Cl)cc21` (stereo not drawn) [Compound 14], in the data set on Boophilus microplus, the “efficacy (laying of fertile eggs)” value turned out to be 100%. Besides, the efficacy in % with Phaedon cochleariae (application rate 500 g/ha), in the data set with Spodoptera frugiperda (application rate 500 g/ha) and in the data set on Tetranychus urticae (application rate 500 g/ha) was 100% throughout. Further, the “efficacy (kill in %)” value in the data set with adult Musca domestica, in the data set with Lucilia cuprina larvae, with Ctenocephalides felis and in the data set on Amblyomma hebraeum was 100% throughout. Also, the log p in “logP (HPLC-MS)” was 3.52.
In the case of `CCn1c(C(=O)NC(c2ccc(F)c(Cl)c2)C(F)(F)F)cc2cc(C(=O)NC3CC3)c(C)cc21` (stereo not drawn) [Compound 192], the “efficacy (laying of fertile eggs)” value in the data set on Boophilus microplus is 100%. In addition, the efficacy in % is 100% with Phaedon cochleariae (application rate 100 g/ha), 100% in the data set on Spodoptera frugiperda (application rate 100 g/ha), 90% in the data set with Myzus persicae and 100% in the data set on Tetranychus urticae (application rate 100 g/ha). The “efficacy (kill in %)” value in the data set on adult Musca domestica, with Lucilia cuprina larvae and in the data set on Ctenocephalides felis was 100% in each case. The molecule further yielded a log p in the data set “logP (HPLC-MS)” of 3.65.
Take `CCn1c(C(=O)NC(c2ccc(F)c(Br)c2)C(F)(F)F)cc2cc(C(=O)NC3CC3)c(Cl)cc21` (stereo not drawn) [Compound 12]: the “efficacy (laying of fertile eggs)” value with Boophilus microplus is 100%. The efficacy in % in the data set on Phaedon cochleariae (application rate 100 g/ha) came to 100%; in the data set with Spodoptera frugiperda (application rate 100 g/ha) it was 100%; in the data set on Myzus persicae, 90%; with Tetranychus urticae (application rate 100 g/ha), 100%. The “efficacy (kill in %)” value in the data set on adult Musca domestica, with Lucilia cuprina larvae and in the data set on Ctenocephalides felis was 100% each time. The log p in “logP (HPLC-MS)” is listed as 3.82.
`CCn1c(C(=O)NC(c2ccc(F)c(Cl)c2)C(F)(F)F)cc2cc(C(=O)NC3CC3)c(Cl)cc21` (stereo not drawn) [Compound 18]: the “efficacy (laying of fertile eggs)” value in the data set with Boophilus microplus is on record as 100%; in data set [1], 80%. Further, the figures for the efficacy in % in the data set with Phaedon cochleariae (application rate 100 g/ha), in the data set on Spodoptera frugiperda (application rate 100 g/ha) and in the data set with Tetranychus urticae (application rate 100 g/ha) were 100%, 100% and 90%, respectively. In addition, the “efficacy (kill in %)” value in the data set with adult Musca domestica, with Lucilia cuprina larvae and with Ctenocephalides felis was 100% throughout. In addition, the log p in “logP (HPLC-MS)” was 3.82.
